Data taken from patent US5403726A, “Enzymatic process for producing a galactosylβ1,3glycal disaccaride using β-galactosidase” (priority 1992, dated 1995).

Target: β-galactosidase (E. coli) (Escherichia coli, UniProt P00722)
Assay: β-galactosidase-mediated coupling reaction with glycal as potential acceptor
Assay type: biochemical
Details: donor GalβpNO2 Ph (Compound 1); no reaction product
Source text: To increase the yield of disaccharide, activated donors were used illustratively here in the kinetic method of glycosidic bond formation. [Nilsson, I. Trends Biotechnol., 6:256 (1988) and the citations therein]. Disaccharide formation was initially examined using commercially available E. coli β-galactosidase [EC 3.2.1.23] and 4-nitrophenyl β-galactopyranoside (Compound 1) as the galactose donor and glucal (Compound 2) [Hodgson, Biotechnology, 9:609 (1991)] as the acceptor. The reaction was monitored by thin layer chromatograph (TLC). After no additional nitrophenyl galactoside appeared to be consumed (19-26 hours), the reaction was terminated.
In a typical procedure, Compound 1 (77 mg, 0.26 mmol) and […] (54 mg, 0.36 mmol) were combined at 25° C. with E. coli β-galactosidase (75 units) in 4 mL of a 0.07 M PIPES/0.2M NaOAc/0.1M EDTA solution at pH 6.5. The progress of the reaction was monitored by TLC (silica gel, 7:2:1 iPrOH--NH4 OH--H2 O). After 26 hours, the solvent was removed in vacuo and the residue treated with acetic anhydride (2 mL) and pyridine (2 mL). After an additional 12 hours, the mixture was concentrated in vacuo and the residue purified by silica gel chromatography (2:3 ethyl acetate-hexanes) to afford a 2.3:1 mixture of β-1,3 and β-1,6 isomers (72 mg, 50 percent). […] The position of the glycoside linkage was unambiguously determined by ^1 H NMR decoupling studies. […]

β-galactosidase (E. coli), sequence (P00722 whole entry): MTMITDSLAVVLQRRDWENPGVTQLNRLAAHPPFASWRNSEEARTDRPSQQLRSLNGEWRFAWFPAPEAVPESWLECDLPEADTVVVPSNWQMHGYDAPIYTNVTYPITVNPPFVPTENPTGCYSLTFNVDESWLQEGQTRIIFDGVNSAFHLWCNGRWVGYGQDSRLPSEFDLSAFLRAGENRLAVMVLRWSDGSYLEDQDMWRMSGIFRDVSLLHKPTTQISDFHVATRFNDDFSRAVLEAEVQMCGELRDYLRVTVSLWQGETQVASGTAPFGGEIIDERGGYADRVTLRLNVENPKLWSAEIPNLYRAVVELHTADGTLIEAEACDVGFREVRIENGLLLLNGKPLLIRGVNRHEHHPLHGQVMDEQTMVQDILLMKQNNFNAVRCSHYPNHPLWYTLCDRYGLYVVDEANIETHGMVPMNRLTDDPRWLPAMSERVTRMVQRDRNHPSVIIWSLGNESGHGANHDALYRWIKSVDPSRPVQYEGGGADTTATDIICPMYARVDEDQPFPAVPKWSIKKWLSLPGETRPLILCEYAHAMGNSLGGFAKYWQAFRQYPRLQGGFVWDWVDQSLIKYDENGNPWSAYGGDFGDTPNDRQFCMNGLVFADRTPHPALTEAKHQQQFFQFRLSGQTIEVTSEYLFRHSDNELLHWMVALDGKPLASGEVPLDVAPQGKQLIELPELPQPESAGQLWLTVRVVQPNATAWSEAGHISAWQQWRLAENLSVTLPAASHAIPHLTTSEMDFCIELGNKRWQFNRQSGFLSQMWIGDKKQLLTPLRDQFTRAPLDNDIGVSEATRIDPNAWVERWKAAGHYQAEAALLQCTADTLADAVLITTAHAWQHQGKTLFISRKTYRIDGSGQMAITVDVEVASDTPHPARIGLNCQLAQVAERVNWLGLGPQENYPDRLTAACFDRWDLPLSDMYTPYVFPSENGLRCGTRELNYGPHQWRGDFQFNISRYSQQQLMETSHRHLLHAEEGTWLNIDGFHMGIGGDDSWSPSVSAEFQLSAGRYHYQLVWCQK

## OC[C@H]1OC=C[C@@H](O)[C@H]1O [Galactal]
  behaviour as potential acceptor in the β-galactosidase coupling reaction (inhibitor): acted as an inhibitor
